≈ marks a conversion by molar mass, not a printed value.
Columns and labels:
Format in all cases: physicochemical
[1] = Solubility of cocrystals in water at room temperature, HPLC area; details: for Solubility (HPLC area of bilastine), run _1 / Solubility (HPLC area of bilastine), run _2 / solubility on dissolution of cocrystal in water: water; for Solubility (HPLC area of bilastine), run _1 / Solubility (HPLC area of bilastine), run _2: rt; for pH_1 / pH_2: pH of the solution; for solubility on dissolution of cocrystal in water: room temperature, 400 mg in 24 ml
Description: 25 μL sample were injected.
Solubility of cocrystals was determined by stirring the product in water at room temperature (400 mg of product in 24 ml of water, 60 vol.). The product was previously milled in order to reduce the crystal size effect. A sample is collected and filtered using a sintered funnel (n° 3) periodically (30, 60, 180 min and after overnight). The filtered solid was immediately analyzed by XRPD, while the mother liquors are filtered through a 0.22 um filter. […] The concentration of Bilastine is determined by HPLC area (in some experiments where a high solubility was detected the mother liquor was diluted by a factor 10). This concentration is compared with the bilastine concentration obtained in the same conditions in order to determine a relative solubility.

[2] = Aqueous solubility of bilastine in the pH range 5-8; details: water, aqueous buffer
Description: The above benzimidazole compounds with selective H1 antihistaminic activity present low solubility in water, which impedes the development of pharmaceutically acceptable means of administering said compounds in liquid form. For example, the solubility of bilastine in the pH range 5-8 is around 500 μg/mL.

[3] = Solubility of bilastine after heating the slurry with acid at 95° C. and cooling (Method 2), HPLC-PDA; details: for solubility after 24 h: pH 4.3, after 24 h; for solubility at 2 h: aqueous buffer, thermodynamic from solid, pH 4.3, 95° C. 2 h, filtrate stood overnight at room temperature
Description: Alternative Method for Determining the Solubility
HPLC-PDA analysis was carried out using a Acquity BEH C18 1.7 μm 100×2.1 mm column at a temperature of 40° C. The isocratic mobile phase was composed of acetonitrile/methanol/ammonium bicarbonate 10 mM pH 8.7 (20.2/24.8/55.0%) (% v/v), at a flow rate of 0.6 mL/min. Samples were centrifuged 10 minutes at 4000 rpm at 20° C., and supernatant diluted to approx. 20-40 μg/mL in water. These diluted samples were kept at 18° C. until analysis. Quantization was performed at 220 nm by area comparison against a calibration curve obtained with bilastine working standard.
Method 2. A slurry of bilastine (100 mg) and the organic carboxylic acid (amount needed to obtain a pH of 4.0-4.5) in water (10 ml) was prepared. The mixture was stirred at 95° C. for 2 h and filtered. The filtrate was cooled to room temperature and allowed to stand overnight.
(§1) Citric acid was added to a slurry of 100 mg of bilastine in 10 mL of water to get a pH of 4.3 and the mixture was heated at 95° C. for 2 h. Then the solid was filtered off and the filtrate was allowed to stand overnight at room temperature. The solid was separated by centrifugation and the concentration of bilastine was determined by HPLC-PDA.
as §1, with “D,L-Tartaric” for “Citric”
as §1, with “Hydrochloric” for “Citric”, “acid 3.7% v/v” for “acid”

SMILES	Solubility (HPLC area of bilastine), run _1 ([1]; 0 min) [area counts]	Solubility (HPLC area of bilastine), run _2 ([1]; 0 min) [area counts]	Solubility (HPLC area of bilastine), run _1 ([1]; 30 min) [area counts]	Solubility (HPLC area of bilastine), run _2 ([1]; 30 min) [area counts]	Solubility (HPLC area of bilastine), run _1 ([1]; 60 min) [area counts]	Solubility (HPLC area of bilastine), run _2 ([1]; 60 min) [area counts]	Solubility (HPLC area of bilastine), run _1 ([1]; 180 min) [area counts]	Solubility (HPLC area of bilastine), run _2 ([1]; 180 min) [area counts]	Solubility (HPLC area of bilastine), run _1 ([1]; 1080 min) [area counts]	Solubility (HPLC area of bilastine), run _2 ([1]; 1080 min) [area counts]	pH_1 ([1]; run 1, 30 min)	pH_1 ([1]; run 1, 60 min)	pH_1 ([1]; run 1, 180 min)	pH_1 ([1]; run 1, 1080 min)	pH_2 ([1]; run 2, 30 min)	pH_2 ([1]; run 2, 60 min)	pH_2 ([1]; run 2, 180 min)	pH_2 ([1]; run 2, 1080 min)	solubility on dissolution of cocrystal in water [1]	further results
CCOCCn1c(C2CCN(CCc3ccc(C(C)(C)C(=O)O)cc3)CC2)nc2ccccc21.CCOCCn1c(C2CCN(CCc3ccc(C(C)(C)C(=O)O)cc3)CC2)nc2ccccc21.O=C(O)CCCC(=O)O [GL(I)]	0	0	49106	48462	48363	48871	50828	50771	48315	47972	4.42	4.31	4.08	4.11	4.34	4.3	4.29	3.97	48000 area counts	–
CCOCCn1c(C2CCN(CCc3ccc(C(C)(C)C(=O)O)cc3)CC2)nc2ccccc21.CCOCCn1c(C2CCN(CCc3ccc(C(C)(C)C(=O)O)cc3)CC2)nc2ccccc21.O=C(O)CCCC(=O)O [GL(IV)]	0	0	61110	61019	61558	61328	60841	62159	48734	55535	4.25	4.22	4.06	4.00	4.25	4.22	4.11	3.98	around 60000 area counts	–
CCOCCn1c(C2CCN(CCc3ccc(C(C)(C)C(=O)O)cc3)CC2)nc2ccccc21.O=C(O)CCCC(=O)O [GL(V)]	0	0	61517	62303	60930	60916	60628	61316	59755	60769	4.00	3.99	3.93	3.95	3.97	3.95	3.94	3.97	60000 area counts	–
CCOCCn1c(C2CCN(CCc3ccc(C(C)(C)C(=O)O)cc3)CC2)nc2ccccc21 [bilastine, 2-[4-(2-{4-[1-(2-Ethoxyethyl)-1H-benzimidazol-2-yl]-1-piperidinyl}ethyl)phenyl]-2-methylpropanoic acid]	–	–	–	–	–	–	–	–	–	–	–	–	–	–	–	–	–	–	–	solubility [2]: ~0.5 mg/mL (≈ 1.08 mM); solubility after 24 h ([3]; citric acid): maintained; concentration of bilastine ([3]; hydrochloric acid (comparative), pH 4.3, compared with the pH-dependent solubility of FIG. 1): in accordance with its pH-dependent solubility; solubility after 24 h ([3]; tartaric acid): maintained; solubility at 2 h ([3]; water acidified with D,L-tartaric acid, D,L-tartaric acid): 2.7 mg/mL (≈ 5.82 mM); solubility at 2 h ([3]; water acidified with citric acid, citric acid): 2.7 mg/mL (≈ 5.82 mM)

— patent US20180344854A1, “SUPERSATURATED COMPOSITIONS OF BENZIMIDAZOLE COMPOUNDS” (Faes Farma, S.A., priority 2015, published 2018)
